Results from patent US4555572A, “Pyrazolo[3,4,5-kl]acridine compositions and methods for their production and use” (Warner-Lambert Company, priority 1984, dated 1985).
Counter-ions that a name gives are not always drawn. Like-named read-outs stand apart in the source and are kept apart here. Values belong to the compound of their own block, whether it stands above or below them.

Experiments:
[1] = tested on: lymphocytic leukemia P388; assay: in vivo lymphocytic leukemia P388 test; design: species or system CD2 F1 mice; details: Mus musculus, P388, ip, 120 h
How it was run: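 CD2 F1 mice (6–7 per group) inoculated i.p. with P388 ascitic cells; compound dosed i.p. once daily for 5 consecutive days after inoculation. Survival followed 30 days; efficacy as treated/control survival time ×100 (≥125 criterion); "toxic" if all animals died within 4 days of first dose.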

Branhamella catarrhalis [2] = assay: in vitro antibacterial/antifungal (ABF) agar-disk diffusion assay; format: cell-based; details: Moraxella catarrhalis, read-out: ABF zone diameter B. catarrh.; for zone of inhibition at 100 µg/mL: dose .1 mg/ml
Description: (§1) (b) Another test protocol is the in vitro antibacterial/antifungal (ABF) test. Compounds are tested for antimicrobial activity in an agar-disk diffusion assay, a standard microbiological technique for testing antibiotics. After incubation of each culture with a test compound, a zone of inhibition is determined. The zone diameter (mm) of active compounds ranges from a minimum of 14 mm to as high as 60 mm, with a greater diameter reflecting higher activity. For convenience, values are reported for (Alcaligenes viscolactis, Sarcina lutea, Branhamella catarrhalis, Bacillus subtilis, and Streptococcus faecalis.

Sarcina lutea = assay: as above; format: cell-based; details: Micrococcus luteus, read-out: ABF zone diameter S. lutea
Description: as §1

Bacillus subtilis = assay: as above; format: cell-based; details: for zone of inhibition at 100 µg/mL: dose .1 mg/ml
Description: as §1

Streptococcus faecalis = assay: as above; format: cell-based; details: Enterococcus faecalis, read-out: ABF zone diameter S. faecalis; for zone of inhibition at 500 µg/mL: dose .5 mg/ml
Description: as §1

Alcaligenes viscolactis [3] = assay: as above; format: cell-based; details: dose .1 mg/ml, read-out: ABF zone diameter A. viscol.
Description: as §1

Branhamella catarrhalis [4] = assay: in vitro antibacterial (ABMF) microdilution susceptibility test; format: cell-based; details: Moraxella catarrhalis, read-out: ABMF Test M.I.C. B. cata.
How it was run: (§2)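 Standard microdilution susceptibility in Mueller-Hinton broth: inoculated wells contain test compound at 1000, 333, 111, 37, 12, 4, 1.4 and 0.46 μg/mL.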

Streptococcus pneumoniae = assay: as above; format: cell-based; details: read-out: ABMF Test M.I.C. S. pneu.
How it was run: as §2

Bacillus cereus = assay: as above; format: cell-based; details: read-out: ABMF Test M.I.C. B. cere.
How it was run: as §2

Alcaligenes viscolactis [5] = assay: as above; format: cell-based; details: read-out: ABMF Test M.I.C. A. visc.
How it was run: as §2

Escherichia coli = assay: as above; format: cell-based; details: read-out: ABMF Test M.I.C. E. coli
How it was run: as §2

HCT-8 cells = assay: in vitro proliferating human colon adenocarcinoma (HCA) cell screen, HCT-8; format: cell-based
How it was run: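 HCT-8 colon adenocarcinoma cells seeded in RPMI 1640 + 10% FCS, grown 48 h, then exposed to compounds for 60-65 h at 37 °C, 5% CO2. Nuclei counted by Coulter counter after lysis; ID50 is the molar concentration giving 50% growth inhibition.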

L1210 cells = assay: PDC test, L1210 cell growth; format: cell-based, murine; details: Mus musculus, read-out: PDC ID50
Description: (c) Another test protocol is the PDC test. L1210 cells, a murine leukemia cell line, were grown in RPMI 1640 supplemented with 10% fetal bovine serum and genamicin (50 μg/ml). Drug dilutions were prepared in the appropriate solvent and 20 μl of each dilution were added to 24-well Linbro tissue culture plates followed by the addition of 2.0 ml of cell suspension containing 3×10^4 cells per ml. Solvent and medium controls were included in each test. After incubation at 37° C. for three days in 5% CO2 in air, the contents of each well were removed and the cells counted in a ZBI Coulter counter. Per cent growth was calculated relative to the controls and the levels of drug activity were expressed as ID50 in terms of molarity (M).

[6] = 3.12 mg/kg, intraperitoneally once daily for five days, read-out: P388 in vivo T/C × 100
[7] = 6.25 mg/kg, intraperitoneally once daily for five days, read-out: P388 in vivo T/C × 100
[8] = 12.5 mg/kg, intraperitoneally once daily for five days, read-out: P388 in vivo T/C × 100
[9] = 25 mg/kg, intraperitoneally once daily for five days, read-out: P388 in vivo T/C × 100
[10] = Bacillus subtilis, read-out: ABF zone diameter B. subtil.
[11] = read-out: P388 in vivo T/C × 100, 6.25 mg/kg, intraperitoneally once daily for five days
[12] = read-out: P388 in vivo T/C × 100, 12.5 mg/kg, intraperitoneally once daily for five days
[13] = read-out: P388 in vivo T/C × 100, 25 mg/kg, intraperitoneally once daily for five days
[14] = HCT-8, read-out: HCA in vitro ID50 avg.
[15] = 50 mg/kg, intraperitoneally once daily for five days, read-out: P388 in vivo T/C × 100
[16] = Mueller-Hinton broth, 37° C., 16-24 hours
[17] = HCT-8 cells, 60 to 65 hours, ED50, read-out: HCA ED50 Avg.

SMILES: O=[N+]([O-])c1ccc2c3c(nn2CCNCCO)-c2ccccc2Nc13 [Example 3, 2-[[2-(5-Nitropyrazolo[3,4,5-kl[acridin-2(6H)-yl)ethyl]amino]ethanol, monohydrochloride]
response vs control in vivo at 3.12 mg/kg [1, 6]: 122%
response vs control in vivo at 6.25 mg/kg [1, 7]: 132%
response vs control in vivo at 12.5 mg/kg [1, 8]: 158%
response vs control in vivo at 25 mg/kg [1, 9]: 185%
zone of inhibition at 500 µg/mL (Branhamella catarrhalis [2]; dose .5 mg/ml): 25 mm
zone of inhibition at 500 µg/mL (Sarcina lutea; dose .5 mg/ml): 14 mm
zone of inhibition at 100 µg/mL (Bacillus subtilis; [10]): 18 mm
zone of inhibition at 500 µg/mL (Streptococcus faecalis): 15 mm
zone of inhibition at 100 µg/mL (Alcaligenes viscolactis [3]): 21 mm

SMILES: COc1ccc2c(c1)-c1nn(CCCN(C)C)c3ccc([N+](=O)[O-])c(c13)N2 [Example 45, 9-Methoxy-N,N-dimethyl-5-nitropyrazolo[3,4,5-kl]acridine-2(6H)-propanamine,methanesulfonate]
MIC (Branhamella catarrhalis [4]): 1.4 µg/mL
MIC (Streptococcus pneumoniae): < 0.46 µg/mL
MIC (Bacillus cereus): 1.4 µg/mL
MIC (Alcaligenes viscolactis [5]): < 0.46 µg/mL
MIC (Escherichia coli): 12.3 µg/mL
response vs control in vivo at 6.25 mg/kg [1, 11]: 189%
response vs control in vivo at 12.5 mg/kg [1, 12]: 227%
response vs control in vivo at 25 mg/kg [1, 13]: 261%
IC50 (HCT-8 cells; HCT-8, read-out: HCA ED50 Avg.): 140 nM
IC50 (L1210 cells; L1210, 72 h): 420 nM

SMILES: COc1ccc2c(c1)-c1nn(CCN(C)C)c3c([N+](=O)[O-])cc([N+](=O)[O-])c(c13)N2 [Example 54, 9-Methoxy-N,N-dimethyl-3,5-dinitropyrazolo[3,4,5-kl]acridine-2(6H)-ethanamine, methanesulfonate (1:1), hydrate]
MIC (Branhamella catarrhalis [4]): 0.46 µg/mL
MIC (Streptococcus pneumoniae): 0.46 µg/mL
MIC (Bacillus cereus): 0.46 µg/mL
MIC (Alcaligenes viscolactis [5]): 0.46 µg/mL
MIC (Escherichia coli): 0.46 µg/mL
response vs control in vivo at 1.56 mg/kg ([1]; read-out: P388 in vivo T/C × 100, 1.56 mg/kg, intraperitoneally once daily for five days): 132%
response vs control in vivo at 3.12 mg/kg ([1]; read-out: P388 in vivo T/C × 100, 3.12 mg/kg, intraperitoneally once daily for five days): 137%
response vs control in vivo at 6.25 mg/kg [1, 11]: 169%
response vs control in vivo at 12.5 mg/kg [1, 12]: 236%
IC50 (HCT-8 cells; [14]): 55 nM
IC50 (L1210 cells; L1210, 72 h): 220 nM

SMILES: CCN(CC)CCn1nc2ccc([N+](=O)[O-])c3c2c1-c1cc(OC)ccc1N3.CS(=O)(=O)O [Example 9, N,N-Diethyl-9-methoxy-5-nitropyrazolo[3,4,5-kl]acridine-1(6H)-ethanamine, monomethanesulfonate]
response vs control in vivo at 12.5 mg/kg [1, 8]: 120%
response vs control in vivo at 25 mg/kg [1, 9]: 135%
response vs control in vivo at 50 mg/kg [1, 15]: 167%
zone of inhibition at 100 µg/mL (Branhamella catarrhalis [2]): 16 mm
zone of inhibition at 100 µg/mL (Sarcina lutea; dose .1 mg/ml): 14 mm
ABF zone diameter B. subtil. (Bacillus subtilis; dose not given): 15 mm
zone of inhibition at 500 µg/mL (Streptococcus faecalis): 18 mm

SMILES: CCN(CC)CCn1nc2c3c(c([N+](=O)[O-])cc([N+](=O)[O-])c31)Nc1ccc(OC)cc1-2 [Example 50, N,N-Diethyl-9-methoxy-3,5-dinitropyrazolo[3,4,5-kl]acridine-2(6H)-ethanamine, methanesulfonate (1:1), hydrate]
MIC (Branhamella catarrhalis [4]): < 0.46 µg/mL
MIC (Streptococcus pneumoniae): < 0.46 µg/mL
MIC (Bacillus cereus): 4.1 µg/mL
MIC (Alcaligenes viscolactis [5]): < 0.46 µg/mL
MIC (Escherichia coli): < 0.46 µg/mL
response vs control in vivo at 6.25 mg/kg [1, 11]: 160%
response vs control in vivo at 12.5 mg/kg [1, 12]: 166%
response vs control in vivo at 25 mg/kg [1, 13]: 169%
response vs control in vivo at 50 mg/kg ([1]; read-out: P388 in vivo T/C × 100, 50 mg/kg, intraperitoneally once daily for five days): 226%
IC50 (HCT-8 cells; [14]): 66 nM
IC50 (L1210 cells; L1210, 72 h): 400 nM

IC50 (HCT-8 cells; HCT-8 cells, 60 to 65 hours, molar concentration for 50% inhibition of growth, read-out: HCA in vitro ID50 avg.): 1000 nM
SMILES: CCN(CC)CCn1nc2c3c(c([N+](=O)[O-])ccc31)N(C)c1ccccc1-2 [Example 2, N,N-Diethyl-6-methyl-5-nitropyrazolo[3,4,5-kl]acridine-2(6H)-ethanamine, methanesulfonate]
response vs control in vivo at 12.5 mg/kg [1, 8]: 126%
response vs control in vivo at 25 mg/kg [1, 9]: 184%
zone of inhibition at 100 µg/mL (Branhamella catarrhalis [2]): 17 mm
zone of inhibition at 100 µg/mL (Bacillus subtilis; [10]): 18 mm
zone of inhibition at 500 µg/mL (Streptococcus faecalis): 16 mm
zone of inhibition at 100 µg/mL (Alcaligenes viscolactis [3]): 20 mm

SMILES: CCOc1ccc2c(c1)-c1nn(CCN(C)C)c3ccc([N+](=O)[O-])c(c13)N2 [Example 37, 9-Ethoxy-N,N-dimethyl-5-nitropyrazolo[3,4,5-kl]acridine-2(6H)ethanamine, methanesulfonate (4:5)]
MIC (Branhamella catarrhalis [4]; [16]): 1.4 µg/mL
MIC (Streptococcus pneumoniae; [16]): < 0.46 µg/mL
MIC (Bacillus cereus; [16]): 4.1 µg/mL
MIC (Alcaligenes viscolactis [5]; [16]): < 0.46 µg/mL
MIC (Escherichia coli; [16]): < 0.46 µg/mL
response vs control in vivo at 3.12 mg/kg [1, 6]: 150%
response vs control in vivo at 6.25 mg/kg [1, 7]: 191%
response vs control in vivo at 12.5 mg/kg [1, 8]: 234%
IC50 (HCT-8 cells; [17]): 25 nM
IC50 (L1210 cells; 72 h, L1210 cells, three days): 270 nM

SMILES: COc1ccc2c(c1)-c1nn(CCNCCO)c3ccc([N+](=O)[O-])c(c13)N2 [Example 7, 2-[[2-(9-Methoxy-5-nitropyrazolo[3,4,5-kl]-acridin-2(6H)yl)ethyl]aminoethanol, monohydrochloride]
response vs control in vivo at 6.25 mg/kg [1, 7]: 138%
response vs control in vivo at 12.5 mg/kg [1, 8]: 138%
response vs control in vivo at 25 mg/kg [1, 9]: 149%
response vs control in vivo at 50 mg/kg [1, 15]: 163%
zone of inhibition at 100 µg/mL (Branhamella catarrhalis [2]): 14 mm
zone of inhibition at 1000 µg/mL (Sarcina lutea; dose 1 mg/ml): 14 mm
zone of inhibition at 500 µg/mL (Bacillus subtilis; Bacillus subtilis, dose .5 mg/ml, read-out: ABF zone diameter B. subtil.): 18 mm
zone of inhibition at 1000 µg/mL (Streptococcus faecalis; dose 1 mg/ml): 14 mm

SMILES: CCN(CC)CCn1nc2c3c(c([N+](=O)[O-])ccc31)Nc1ccc(N(C)C)cc1-2.CS(=O)(=O)O.CS(=O)(=O)O [Example 33, 9-(Dimethylamino)-N,N-diethyl-5-nitropyrazolo[3,4,5-kl]acridine-2(6H)-ethanamine, methanesulfonate (1:2)]
MIC (Branhamella catarrhalis [4]; [16]): 12.3 µg/mL
MIC (Streptococcus pneumoniae; [16]): 1.4 µg/mL
MIC (Bacillus cereus; [16]): 37 µg/mL
MIC (Alcaligenes viscolactis [5]; [16]): 1.4 µg/mL
MIC (Escherichia coli; [16]): 37 µg/mL
response vs control in vivo at 12.5 mg/kg [1, 8]: 127%
response vs control in vivo at 25 mg/kg [1, 9]: 158%
IC50 (HCT-8 cells; [17]): 320 nM
IC50 (L1210 cells; 72 h, L1210 cells, three days): 900 nM

MIC (Branhamella catarrhalis [4]; [16]): < 0.46 µg/mL
MIC (Streptococcus pneumoniae; [16]): < 0.46 µg/mL
MIC (Bacillus cereus; [16]): 1.4 µg/mL
MIC (Alcaligenes viscolactis [5]; [16]): < 0.46 µg/mL
MIC (Escherichia coli; [16]): 1.4 µg/mL
IC50 (HCT-8 cells; [17]): 120 nM
IC50 (L1210 cells; 72 h, L1210 cells, three days): 210 nM
SMILES: CCNCCn1nc2c3c(c([N+](=O)[O-])ccc31)Nc1ccc(OC)cc1-2 [Example 36, N-Ethyl-9-methoxy-5-nitropyrazolo[3,4,5-kl]acridine-2(6H)-ethanamine, 1.25 methanesulfonate salt (4:5), hemihydrate]
response vs control in vivo at 12.5 mg/kg [1, 8]: 169%
response vs control in vivo at 25 mg/kg [1, 9]: 160%
response vs control in vivo at 50 mg/kg [1, 15]: 223%
